Assay results: US5420158A, “Naphthylalkylamines” (Adir et Compagnie, priority 1992, dated 1995)

Tested on: Xenopus melanophores
Test: Melatonin-antagonist activity with respect to pigment aggregation
Assay type: cell-based, Xenopus laevis
Details: compound at 10^-7 M, melatonin 10^-8 M
Protocol: Melatonin is known to participate in regulation of the skin color of amphibians such as Xenopus (Xenopus laevis). It causes condensation of the […] granules in the melanophores of the dermis (Sugden D. European Journal of Pharmacology, vol. 213, pp: 405-408 (1992)).
The compounds of the invention were tested for their capacity to inhibit the effect of melatonin on Xenopus melanophores.
(According to the method described in Sugden D. Br. J. Pharmacol. vol. 104, pp 922-927, (1991)).
The neural crest of Xenopus embryos is dissected and the cells are isolated. The melanophores which appear after 2-3 days of culture are rapidly visible among the other cells emanating from the neural crest. The melanophores are cultured in Leibovitz L-15 medium (Gibco) and diluted (1/1) with deionized water containing 10% of fetal calf serum, 200 IU/cm^3 of penicillin, 200 μg/cm^3 of streptomycin and 2.5 μg/cm^3 of amphotericin B.
The experiments on the melanophores are carried out between days 7 and 12 of the culture.
The response of the isolated melanophores to melatonin is quantified by measuring the pigmented area using a computer-assisted image analyzer. The test compounds are added to the culture medium 10 to 15 min before the measurement.

Structure (SMILES): O=C(NCCc1cccc2ccccc12)C1CCC1 [Example 1, N-[2-(1-naphthyl)ethyl]cyclobutanecarboxamide]
- antagonism of the action of melatonin on pigment aggregation: significantly antagonizes the action of melatonin
